Assays:
Format in all cases: in vivo
[1] = system: Pansy plants; experiment: Pansy shelf life under drought (daily wilting rating, sales index)
Protocol: (§1) All studies were conducted in the greenhouse at the research farm of Valent BioSciences Corporation (Long Grove, Ill.). Pansy plants were obtained either from local retailers as mature plants, or plugs from wholesale nurseries. Plugs of Pansy plants were transplanted into an 18-cell flat filled with Promix BX (available from Premier Horticulture Inc. Quakertown, Pa.) and grown for about 30 days prior to treatment. During growing periods, plants received daily irrigation and weekly fertilizer (1 g/L all purpose fertilizer 20-20-20, The Scotts Company, Marysville, Ohio).
(§2) Uniform plants were selected for the study. Prior to chemical treatment, plants were saturated with water and then drained for about two hours. A total of 20 mL chemical solution, which is equivalent to about 10% of the cell volume, was applied to each plant with 3 mL solution foliar applied to canopy and 17 mL solution drench applied to root zone. Unless specified, watering of plants was stopped after chemical treatment.
(§3) After chemical treatment, plants were arranged in a randomized complete block experimental design. The plants were rated daily for the extent of wilting on a scale from 1 (no wilting) to 4 (complete wilting) to generated a sales index rating. A rating of 2.5 was the point at which a plant was determined to be unmarketable and the previous day was recorded as the shelf life of that plant in days. Yellow leaf number was counted at 3 days after chemical treatment. Leaf transpiration rate was measured after treatment using a LI-1600 Steady State Porometer (LI-Cor, Lincoln, Nebr.). The transpiration rate of each treatment was calculated as the percentage of that of control at each day to reduce day-to-day variation caused by changes of environmental condition such as light intensity, humidity, and temperature.

[2] = system: Pansy plants; experiment: Plant elongation after gibberellin treatment; details: 0.1 mg or 1 mg per plant; Delta Premium Pure White
Source text: GA4/7 reduced the number of yellow leaves more than GA3.

[3] = system: Pansy plants; experiment: Pansy yellow leaf number (leaf yellowing)
Protocol: as §1, §2
as §3, with “Yellow leaf number was counted at 3 days after chemical treatment.” left out

[4] = system: Pansy plants; experiment: Pansy leaf transpiration rate (LI-1600 Steady State Porometer); details: for Transpiration rate (% of control): Matrix Premium Rose, Table 16; for Transpiration inhibition: sufficient water
Protocol: as §2, §3

C=C1C[C@]23C[C@@]1(O)CC[C@H]2[C@@]12C=C[C@H](O)[C@@](C)(C(=O)O1)[C@H]2[C@@H]3C(=O)O [GA3, gibberellin A3]
Shelf life ([1]; 0.1 mg, Delta Premium Pure White, Table 24): 4.3 days | Shelf life ([1]; 1 mg, Delta Premium Pure White, Table 24): 4.0 days | Effect on plant elongation [2]: no apparent effect | Yellow leaf number ([3]; 0.1 mg, Delta Premium Pure White, 3 days after treatment, Table 24): 1.3 | Yellow leaf number ([3]; 0.1 mg, Delta Premium Pure White, 7 days after treatment, Table 24): 3.8 | Yellow leaf number ([3]; 1 mg, Delta Premium Pure White, 3 days after treatment, Table 24): 1.2 | Yellow leaf number ([3]; 1 mg, Delta Premium Pure White, 7 days after treatment, Table 24): 3.7

C#CC1(C)CC(=O)C=C(C)C1(O)/C=C/C(C)=C\C(=O)OC (stereo not drawn) [PBI-429, 8′ acetylene-ABA methyl ester]
Transpiration rate (% of control) ([4]; 0.3 mg PBI-429, no water, day 1 after treatment): 34 % of control | Transpiration rate (% of control) ([4]; 0.3 mg PBI-429, no water, day 2 after treatment): 35 % of control | Transpiration rate (% of control) ([4]; 0.3 mg PBI-429, no water, day 3 after treatment): 26 % of control | Transpiration inhibition ([4]; 0.3 mg PBI-429, through 3 days after treatment): greater than 50% | Transpiration rate (% of control) ([4]; 0.3 mg PBI-429, watered, day 1 after treatment): 32 % of control | Transpiration rate (% of control) ([4]; 0.3 mg PBI-429, watered, day 2 after treatment): 33 % of control | Transpiration rate (% of control) ([4]; 0.3 mg PBI-429, watered, day 3 after treatment): 44 % of control | Transpiration rate (% of control) ([4]; 0.3 mg PBI-429, watered, day 4 after treatment): 68 % of control | Transpiration rate (% of control) ([4]; 0.3 mg PBI-429, watered, day 5 after treatment): 74 % of control | Transpiration rate (% of control) ([4]; 0.3 mg PBI-429, watered, day 7 after treatment): 81 % of control | Transpiration rate (% of control) ([4]; 0.3 mg PBI-429, watered, day 10 after treatment): 88 % of control | Transpiration rate (% of control) ([4]; 3 mg PBI-429, no water, day 1 after treatment): 23 % of control | Transpiration rate (% of control) ([4]; 3 mg PBI-429, no water, day 2 after treatment): 14 % of control | Transpiration rate (% of control) ([4]; 3 mg PBI-429, no water, day 3 after treatment): 9 % of control | Transpiration rate (% of control) ([4]; 3 mg PBI-429, no water, day 4 after treatment): 10 % of control | Transpiration rate (% of control) ([4]; 3 mg PBI-429, no water, day 5 after treatment): 18 % of control | Transpiration inhibition ([4]; 3 mg PBI-429, through 10 days after treatment): greater than 50% | Transpiration rate (% of control) ([4]; 3 mg PBI-429, watered, day 1 after treatment): 20 % of control | Transpiration rate (% of control) ([4]; 3 mg PBI-429, watered, day 2 after treatment): 15 % of control | Transpiration rate (% of control) ([4]; 3 mg PBI-429, watered, day 3 after treatment): 29 % of control | Transpiration rate (% of control) ([4]; 3 mg PBI-429, watered, day 4 after treatment): 28 % of control | Transpiration rate (% of control) ([4]; 3 mg PBI-429, watered, day 5 after treatment): 32 % of control | Transpiration rate (% of control) ([4]; 3 mg PBI-429, watered, day 7 after treatment): 44 % of control | Transpiration rate (% of control) ([4]; 3 mg PBI-429, watered, day 10 after treatment): 46 % of control | Shelf life ([1]; 0.1 mg, Matrix Orange, drought, Table 1): 5.5 days | Shelf life ([1]; 0.3 mg PBI-429, no water, Whispers White, Table 15): 3.8 days | Shelf life ([1]; 0.3 mg, Clear Sky Yellow, drought, Table 8): 6.5 days | Shelf life ([1]; 0.3 mg, Crown Azure Blue, drought, Table 9): 4.5 days | Shelf life ([1]; 0.3 mg, Matrix Orange, drought, Table 1): 5.8 days | Shelf life ([1]; 0.3 mg, Matrix Orange, drought, Table 2): 5.8 days | Shelf life ([1]; 0.3 mg, Matrix Yellow, drought, Table 7): 7.5 days | Shelf life ([1]; 1 mg, Matrix Orange, drought, Table 1): 7.0 days | Shelf life ([1]; 3 mg PBI-429, no water, Whispers White, Table 15): 7.2 days | Shelf life ([1]; 3 mg, Clear Sky Yellow, drought, Table 8): 8.7 days | Shelf life ([1]; 3 mg, Crown Azure Blue, drought, Table 9): 7.0 days | Shelf life ([1]; 3 mg, Matrix Orange, drought, Table 1): 8.3 days | Shelf life ([1]; 3 mg, Matrix Orange, drought, Table 2): 9.5 days | Shelf life ([1]; 3 mg, Matrix Yellow, drought, Table 7): 8.8 days | Yellow leaf number ([3]; 0.1 mg, Matrix Orange, drought, 3 d after treatment, Table 1): 3 | Yellow leaf number ([3]; 0.3 mg, Clear Sky Yellow, drought, 3 d after treatment, Table 8): 2.8 | Yellow leaf number ([3]; 0.3 mg, Crown Azure Blue, drought, 3 d after treatment, Table 9): 4.8 | Yellow leaf number ([3]; 0.3 mg, Matrix Orange, drought, 3 d after treatment, Table 1): 5 | Yellow leaf number ([3]; 0.3 mg, Matrix Orange, drought, 3 d after treatment, Table 2): 9.0 | Yellow leaf number ([3]; 0.3 mg, Matrix Yellow, drought, 3 d after treatment, Table 7): 9.7 | Yellow leaf number ([3]; 1 mg, Matrix Orange, drought, 3 d after treatment, Table 1): 7 | Yellow leaf number ([3]; 3 mg PBI-429, no water, Whispers White, 3 d after treatment, Table 15): 23.3 | Yellow leaf number ([3]; 3 mg, Clear Sky Yellow, drought, 3 d after treatment, Table 8): 4.8 | Yellow leaf number ([3]; 3 mg, Crown Azure Blue, drought, 3 d after treatment, Table 9): 7.7 | Yellow leaf number ([3]; 3 mg, Matrix Orange, drought, 3 d after treatment, Table 1): 10 | Yellow leaf number ([3]; 3 mg, Matrix Yellow, drought, 3 d after treatment, Table 7): 13.2

Reference: patent US20100022562A1, “Use of Plant Growth Regulators to Reduce Abscisic Acid Related Plant Leaf Yellowing” (priority 2008, published 2010)
